{
  "source": "patent US20100075370A1",
  "about": "“METHOD FOR DETERMINATION OF CELL VIABILITY BY USING FLOW CYTOMETRY WITH FIXED VOLUME ACQUISITION” (TUMORTEC GMBH, priority 2006, published 2010)",
  "system": "patient samples (pBMC from CLL patients)",
  "test": "DiSC assay, chemosensitivity index Ci",
  "assay_type": "cell-based, human",
  "protocol": "(2) A more complex standardization is the calculation of an index. In case of the chemosensitivity testing it is not a single value that has to be standardized. The chemosensitivity towards a drug is tested with several concentrations of the drug in parallel in a cell culture assay. […] This method was adopted for the present invention from the analysis of DiSC assays (Staib et al., British Journal of Haematology, 2005, 128, 783-791). The Chemosensitivity Index Ci was designed as a prognostic index for ex vivo chemosensitivity assays. Assay results were expressed as percent tumor cell survival (% TCS). The dose-response curve as a function of the dose-response relationship may be mathematically described by a […] regression model (FIG. 4). The dose-response curve was defined as CS=c1*e^conc*c2 % with cell survival (CS), drug concentration (conc) and the constants c1 and c2. c1 represented the y-axis distance and c2 the slope of the curve. The area under the curve (AUC) as an exact measure for the total dose response relation was defined as AUC=−e^c1/c2, on condition that c2 is less than 0, otherwise AUC is infinite. The chemosensitivity index, Ci, was set up as Ci=e^−AUC*c with a domain between 0 and 1. The drug-specific constant c was used for adjusting the Ci-value of 0.5 as the cut-off point between resistance and sensitivity. The constant c was defined as\nwith AUCcut-off as the smallest AUC value among all clinical non-responding patients of the training data set. Obviously, all cytotoxic agents given for treatment were ineffective in these patients. The cut-off Ci value must be adjusted to 0.5 for prognosis of the effect of the drug on a patient in vivo when the drug is tested on said patient's cells in vitro using the method of the present invention. Ci values of 0-0.5 indicated resistance and values above 0.5 predicted sensitivity against the drug tested.\nThe chemosensitivity index Ci based on the DiSC assay as described in Staib, P. et al., Br. J. Haematol., 128(6):783-91 (2005) is known to have a very high accuracy of prediction (98%) for the clinical outcome of a particular chemotherapy (Staib, P. et al., Br. J. Haematol., 128(6):783-91 (2005)). In order to evaluate the accuracy of the cytotoxicity assay as described in example 1 (“new method”), the Ci determination was performed for assay results of patient samples analyzed with the traditional DiSC assay and—in parallel—with the new assay method described in example 1. In total, 22 patient samples were analyzed. Fludara® was used in both assays. The cytotoxicity assay of example 1 was performed as described therein, and the DiSC assay was performed as described in Staib, P. et al., Br. J. Haematol., 128(6):783-91 (2005).",
  "data": [
    {"smiles": "Nc1nc(F)nc2c1ncn2[C@@H]1O[C@H](COP(=O)(O)O)[C@@H](O)[C@@H]1O", "note": "[Fludarabine phosphate, 2-Fluoro-9-(5-O-phosphono-β-D-arabinofuranosyl)-9H-purin-6-amine]", "values": [
      {"measurement": "Ci (DiSC-Assay)", "setting": "patient #1", "value": 0.99},
      {"measurement": "prediction (DiSC-Assay)", "setting": "patient #1", "value": "sensitive (values above 0.5 predicted sensitivity against the drug tested)"},
      {"measurement": "Ci (DiSC-Assay)", "setting": "patient #2", "value": 0.98},
      {"measurement": "prediction (DiSC-Assay)", "setting": "patient #2", "value": "sensitive (values above 0.5 predicted sensitivity against the drug tested)"},
      {"measurement": "Ci (DiSC-Assay)", "setting": "patient #3", "value": 0.97},
      {"measurement": "prediction (DiSC-Assay)", "setting": "patient #3", "value": "sensitive (values above 0.5 predicted sensitivity against the drug tested)"},
      {"measurement": "Ci (DiSC-Assay)", "setting": "patient #4", "value": 0.95},
      {"measurement": "prediction (DiSC-Assay)", "setting": "patient #4", "value": "sensitive (values above 0.5 predicted sensitivity against the drug tested)"},
      {"measurement": "Ci (DiSC-Assay)", "setting": "patient #5", "value": 0.90},
      {"measurement": "prediction (DiSC-Assay)", "setting": "patient #5", "value": "sensitive (values above 0.5 predicted sensitivity against the drug tested)"},
      {"measurement": "Ci (DiSC-Assay)", "setting": "patient #6", "value": 0.89},
      {"measurement": "prediction (DiSC-Assay)", "setting": "patient #6", "value": "sensitive (values above 0.5 predicted sensitivity against the drug tested)"},
      {"measurement": "Ci (DiSC-Assay)", "setting": "patient #7", "value": 0.85},
      {"measurement": "prediction (DiSC-Assay)", "setting": "patient #7", "value": "sensitive (values above 0.5 predicted sensitivity against the drug tested)"},
      {"measurement": "Ci (DiSC-Assay)", "setting": "patient #8", "value": 0.81},
      {"measurement": "prediction (DiSC-Assay)", "setting": "patient #8", "value": "sensitive (values above 0.5 predicted sensitivity against the drug tested)"},
      {"measurement": "Ci (DiSC-Assay)", "setting": "patient #9", "value": 0.75},
      {"measurement": "prediction (DiSC-Assay)", "setting": "patient #9", "value": "sensitive (values above 0.5 predicted sensitivity against the drug tested)"},
      {"measurement": "Ci (DiSC-Assay)", "setting": "patient #10", "value": 0.70},
      {"measurement": "prediction (DiSC-Assay)", "setting": "patient #10", "value": "sensitive (values above 0.5 predicted sensitivity against the drug tested)"},
      {"measurement": "Ci (DiSC-Assay)", "setting": "patient #11", "value": 0.68},
      {"measurement": "prediction (DiSC-Assay)", "setting": "patient #11", "value": "sensitive (values above 0.5 predicted sensitivity against the drug tested)"},
      {"measurement": "Ci (DiSC-Assay)", "setting": "patient #12", "value": 0.61},
      {"measurement": "prediction (DiSC-Assay)", "setting": "patient #12", "value": "sensitive (values above 0.5 predicted sensitivity against the drug tested)"},
      {"measurement": "Ci (DiSC-Assay)", "setting": "patient #13", "value": 0.60},
      {"measurement": "prediction (DiSC-Assay)", "setting": "patient #13", "value": "sensitive (values above 0.5 predicted sensitivity against the drug tested)"},
      {"measurement": "Ci (DiSC-Assay)", "setting": "patient #14", "value": 0.57},
      {"measurement": "prediction (DiSC-Assay)", "setting": "patient #14", "value": "sensitive (values above 0.5 predicted sensitivity against the drug tested)"},
      {"measurement": "Ci (DiSC-Assay)", "setting": "patient #15", "value": 0.55},
      {"measurement": "prediction (DiSC-Assay)", "setting": "patient #15", "value": "sensitive (values above 0.5 predicted sensitivity against the drug tested)"},
      {"measurement": "Ci (DiSC-Assay)", "setting": "patient #16", "value": 0.50},
      {"measurement": "prediction (DiSC-Assay)", "setting": "patient #16", "value": "resistant (Ci values of 0-0.5 indicated resistance)"},
      {"measurement": "Ci (DiSC-Assay)", "setting": "patient #17", "value": 0.47},
      {"measurement": "prediction (DiSC-Assay)", "setting": "patient #17", "value": "resistant (Ci values of 0-0.5 indicated resistance)"},
      {"measurement": "Ci (DiSC-Assay)", "setting": "patient #18", "value": 0.46},
      {"measurement": "prediction (DiSC-Assay)", "setting": "patient #18", "value": "resistant (Ci values of 0-0.5 indicated resistance)"},
      {"measurement": "Ci (DiSC-Assay)", "setting": "patient #19", "value": 0.43},
      {"measurement": "prediction (DiSC-Assay)", "setting": "patient #19", "value": "resistant (Ci values of 0-0.5 indicated resistance)"},
      {"measurement": "Ci (DiSC-Assay)", "setting": "patient #20", "value": 0.39},
      {"measurement": "prediction (DiSC-Assay)", "setting": "patient #20", "value": "resistant (Ci values of 0-0.5 indicated resistance)"},
      {"measurement": "Ci (DiSC-Assay)", "setting": "patient #21", "value": 0.34},
      {"measurement": "prediction (DiSC-Assay)", "setting": "patient #21", "value": "resistant (Ci values of 0-0.5 indicated resistance)"},
      {"measurement": "Ci (DiSC-Assay)", "setting": "patient #22", "value": 0.32},
      {"measurement": "prediction (DiSC-Assay)", "setting": "patient #22", "value": "resistant (Ci values of 0-0.5 indicated resistance)"}
    ]}
  ]
}
